Data taken from ChEMBL document CHEMBL1201862, “PubChem BioAssay data set” (2004).
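Following 48 hours of exposure in 96-well plates, responses at five concentrations were used to interpolate endpoints linearly. Abbreviation: GI50, concentration required for 50% inhibition of growth.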 The source made the active and inactive calls. Rule as the data show it: active = GI50 up to about 1.1 µM and inactive = higher.

Assays:
Test in all cases: inhibition of tumour cell growth, NCI panel, 48 h
OVCAR-3 = tested on: OVCAR-3
NCI-H522 = tested on: NCI-H522
MOLT-4 = tested on: MOLT-4
HL-60 = tested on: HL-60
KM12 = tested on: KM12
RPMI-8226 = tested on: RPMI-8226
OVCAR-5 = tested on: OVCAR-5
MCF7 = tested on: MCF7
PC-3 = tested on: PC-3
UO-31 = tested on: UO-31
EKVX = tested on: EKVX
SK-MEL-5 = tested on: SK-MEL-5
A549 = tested on: A549
SNB-75 = tested on: SNB-75
RXF 393 = tested on: RXF 393
HT-29 = tested on: HT-29
SF-295 = tested on: SF-295
TK-10 = tested on: TK-10
HOP-62 = tested on: HOP-62
SK-MEL-28 = tested on: SK-MEL-28

Measured: GI50

C[Si](C)(C)C#Cc1cc(-c2nc3ccccc3s2)ccc1N
inactive: OVCAR-3 17.3 µM | NCI-H522 13.9 µM | MOLT-4 29.2 µM | HL-60 23.3 µM | KM12 15.2 µM | RPMI-8226 21.8 µM | OVCAR-5 16.5 µM | PC-3 16.2 µM | UO-31 13.4 µM | EKVX 12 µM | SK-MEL-5 15.5 µM | A549 19.4 µM | SNB-75 12.7 µM | RXF 393 17.5 µM | HT-29 20.1 µM | SF-295 18.6 µM | TK-10 11.7 µM | HOP-62 16.2 µM
active: MCF7 0.491 µM

COP(=O)(OC)c1ccc(NCc2cc(O)ccc2O)cc1
inactive: OVCAR-3 6.34 µM | NCI-H522 17.3 µM | MOLT-4 30.2 µM | HL-60 21.4 µM | KM12 19.9 µM | RPMI-8226 19.5 µM | OVCAR-5 23.9 µM | MCF7 28.8 µM | PC-3 > 60.4 µM | UO-31 15.5 µM | EKVX 23.1 µM | SK-MEL-28 30.2 µM | SK-MEL-5 22.1 µM | A549 > 100 µM | SNB-75 29.5 µM | RXF 393 25.3 µM | HT-29 24.8 µM | SF-295 17.3 µM | TK-10 23.4 µM | HOP-62 35.8 µM

COc1ccc(C(O)/C(=N/N)c2nc3ccc(Cl)cc3nc2O)cc1 (configuration not stated)
inactive: OVCAR-3 > 100 µM | NCI-H522 > 100 µM | MOLT-4 > 100 µM | HL-60 > 100 µM | KM12 > 100 µM | RPMI-8226 97.7 µM | OVCAR-5 > 100 µM | MCF7 62.7 µM | PC-3 > 100 µM | UO-31 > 100 µM | EKVX > 100 µM | SK-MEL-28 > 100 µM | SK-MEL-5 > 100 µM | A549 > 100 µM | SNB-75 > 100 µM | RXF 393 > 100 µM | HT-29 > 100 µM | SF-295 > 100 µM | TK-10 > 100 µM | HOP-62 > 100 µM

CC(=O)O[C@H]1CC[C@@]2(C)C(=CC[C@@H]3[C@@H]2CC[C@](C)(c2nnc(C)o2)[C@H]3CC#N)C1
inactive: OVCAR-3 > 100 µM | NCI-H522 > 100 µM | MOLT-4 > 100 µM | HL-60 61.9 µM | KM12 > 100 µM | RPMI-8226 > 100 µM | OVCAR-5 > 100 µM | MCF7 > 100 µM | PC-3 > 100 µM | UO-31 > 100 µM | EKVX > 100 µM | SK-MEL-5 > 100 µM | A549 > 100 µM | SNB-75 51.6 µM | RXF 393 > 100 µM | HT-29 > 100 µM | SF-295 > 100 µM | TK-10 > 100 µM | HOP-62 > 100 µM

Cc1csc(NCc2ccc(Cl)cc2)n1
inactive: OVCAR-3 44.7 µM | NCI-H522 28.9 µM | MOLT-4 35.9 µM | HL-60 33.1 µM | KM12 56.1 µM | RPMI-8226 44 µM | OVCAR-5 > 100 µM | MCF7 43.3 µM | PC-3 37.8 µM | UO-31 37.4 µM | EKVX 32.7 µM | SK-MEL-28 85.1 µM | SK-MEL-5 23.7 µM | A549 40.5 µM | SNB-75 36.3 µM | RXF 393 25.4 µM | HT-29 47.1 µM | SF-295 39.8 µM | TK-10 > 100 µM | HOP-62 > 100 µM

C[N+]1(C)C/C(=C\C=C\c2ccccc2)C(=O)/C(=C/C=C/c2ccccc2)C1
active: HL-60 1.02 µM
inactive: OVCAR-3 8.61 µM | NCI-H522 3.78 µM | MOLT-4 4.06 µM | KM12 2.93 µM | RPMI-8226 2.07 µM | OVCAR-5 24.3 µM | MCF7 10.2 µM | PC-3 10.4 µM | UO-31 85.5 µM | EKVX 45.1 µM | SK-MEL-28 3.85 µM | SK-MEL-5 6.24 µM | A549 39.8 µM | SNB-75 6.73 µM | RXF 393 21.5 µM | HT-29 9.53 µM | SF-295 23.8 µM | TK-10 33.4 µM | HOP-62 21.3 µM

CC1/C=C/C=C/CC/C=C/C=C/C=C/C=C/C(OC2OC(C)C(O)C(N)C2O)CC2OC(CC(O)C(O)CCC(O)CC(O)CC(O)CC(=O)OC(C)C(C)C1O)CC(O)C2C(=O)O (configuration not stated)
inactive: OVCAR-3 20 µM | NCI-H522 19.3 µM | MOLT-4 20.2 µM | HL-60 23.9 µM | KM12 26.8 µM | RPMI-8226 22.6 µM | OVCAR-5 17.9 µM | MCF7 17.5 µM | PC-3 18.8 µM | UO-31 21 µM | EKVX 16.7 µM | SK-MEL-28 19.7 µM | SK-MEL-5 19.7 µM | A549 18 µM | SNB-75 18.6 µM | RXF 393 13.8 µM | HT-29 17.3 µM | SF-295 22.3 µM | TK-10 17.5 µM | HOP-62 19.4 µM

CCCCCCCC(=O)N1C2CC3CCC2(CS1(=O)=O)C3(C)C (configuration not stated)
inactive: OVCAR-3 > 10 µM | NCI-H522 19.4 µM | MOLT-4 17.3 µM | HL-60 20 µM | KM12 26.2 µM | RPMI-8226 19.7 µM | OVCAR-5 44.8 µM | MCF7 18.7 µM | PC-3 23.7 µM | UO-31 22.6 µM | EKVX 37.4 µM | SK-MEL-28 14.4 µM | SK-MEL-5 18.2 µM | A549 27 µM | SNB-75 24.7 µM | RXF 393 13.3 µM | HT-29 > 10 µM | SF-295 22.2 µM | TK-10 33.6 µM | HOP-62 20.8 µM

O=C(NC(=O)c1ccccc1[N+](=O)[O-])Nc1ccc(Oc2ncc(Br)cn2)c(Cl)c1
active: OVCAR-3 0.0252 µM | NCI-H522 0.0131 µM | MOLT-4 0.033 µM | HL-60 0.00383 µM | KM12 0.023 µM | RPMI-8226 0.0256 µM | OVCAR-5 0.0207 µM | MCF7 0.0265 µM | PC-3 0.029 µM | UO-31 0.0281 µM | EKVX 0.0348 µM | SK-MEL-28 0.0286 µM | SK-MEL-5 0.0224 µM | A549 0.0428 µM | SNB-75 0.0231 µM | RXF 393 0.00771 µM | HT-29 0.0175 µM | SF-295 0.0137 µM | TK-10 0.0362 µM | HOP-62 0.0249 µM

COC(=O)[C@H](Cc1ccccc1)NC(=O)N1CCCN(C(=O)N[C@@H](Cc2ccccc2)C(=O)OC)CCCN(C(=O)N[C@@H](Cc2ccccc2)C(=O)OC)CCC1
inactive: OVCAR-3 16.9 µM | NCI-H522 18.9 µM | MOLT-4 17.7 µM | HL-60 32.8 µM | KM12 28.9 µM | RPMI-8226 32.1 µM | OVCAR-5 15.7 µM | MCF7 18.2 µM | PC-3 15.8 µM | UO-31 15.9 µM | EKVX 21.8 µM | SK-MEL-28 19.4 µM | SK-MEL-5 19.4 µM | A549 27.9 µM | SNB-75 16.1 µM | RXF 393 16.9 µM | HT-29 16.8 µM | SF-295 17.8 µM | TK-10 22.3 µM | HOP-62 16.6 µM

CCOC(=O)c1ccc(C(=O)/C(C(C)=O)=C2\CCCN2C)n1C
inactive: OVCAR-3 99.8 µM | NCI-H522 57.5 µM | MOLT-4 23.1 µM | HL-60 18.5 µM | KM12 29.1 µM | RPMI-8226 61.2 µM | OVCAR-5 > 100 µM | MCF7 61.7 µM | PC-3 > 100 µM | UO-31 > 100 µM | EKVX 18.2 µM | SK-MEL-28 > 100 µM | SK-MEL-5 42.9 µM | A549 > 100 µM | SNB-75 10.9 µM | RXF 393 29.5 µM | SF-295 56.9 µM | TK-10 > 100 µM | HOP-62 57.9 µM

O=C1C([N-]S(=O)(=O)c2ccccc2)=C([n+]2ccc(Cc3ccccc3)cc2)C(=O)c2ccccc21
active: OVCAR-3 0.142 µM | NCI-H522 0.614 µM | MCF7 0.435 µM | SK-MEL-28 0.859 µM | SK-MEL-5 0.145 µM | HT-29 0.263 µM
inactive: MOLT-4 1.81 µM | HL-60 1.38 µM | KM12 1.89 µM | RPMI-8226 1.65 µM | OVCAR-5 2.03 µM | PC-3 2.21 µM | UO-31 2.13 µM | EKVX 1.76 µM | A549 1.92 µM | SNB-75 1.31 µM | RXF 393 2.31 µM | SF-295 1.79 µM | TK-10 1.66 µM | HOP-62 1.75 µM

COc1ccccc1C1(c2c(OC)c(=O)c2=O)SCCCS1
inactive: OVCAR-3 86.7 µM | NCI-H522 27.4 µM | MOLT-4 72.4 µM | HL-60 > 100 µM | KM12 > 100 µM | RPMI-8226 32 µM | OVCAR-5 34.4 µM | MCF7 > 100 µM | PC-3 > 100 µM | UO-31 > 100 µM | EKVX 75.2 µM | SK-MEL-28 > 100 µM | SK-MEL-5 > 100 µM | A549 74.8 µM | SNB-75 71.8 µM | RXF 393 44.5 µM | HT-29 > 100 µM | SF-295 67 µM | TK-10 > 100 µM | HOP-62 > 100 µM

N=C(N)N/N=C/c1c(Cl)nc2sccn12
inactive: OVCAR-3 24.1 µM | NCI-H522 27 µM | MOLT-4 16.4 µM | HL-60 17.4 µM | KM12 16.4 µM | RPMI-8226 19.4 µM | OVCAR-5 28.8 µM | MCF7 26.9 µM | PC-3 30.4 µM | UO-31 34.7 µM | EKVX 42.9 µM | SK-MEL-28 35.4 µM | SK-MEL-5 15.8 µM | A549 30.5 µM | SNB-75 38.1 µM | RXF 393 28.2 µM | HT-29 17.3 µM | SF-295 21.4 µM | TK-10 52.2 µM | HOP-62 21.5 µM
